Patent publication US11547130B2, “Nanocomposite bacteriostatic material and a preparation method and an application thereof” (Tianjin University of Science and Technology, priority 2019, dated 2023)

Tested on: Bacillus subtilis
Assay: Shake-flask antibacterial test, viable count by dilution spread plate method
Format: cell-based
Description: Bacillus subtilis was selected as a strain for the antibacterial test. The Bacillus subtilis was cultured for overnight in a shake flask first, and a bacteria solution having a concentration of 10^8 CFU/mL was selected as a seed solution for later use. Multiple 100 mL triangular flasks provided with 30 mL of LB liquid medium were taken, and sterilized for 20 min at 121° C. The triangular flasks were divided into four groups, three triangular flasks in each group for parallel test.
The Bacillus subtilis solution having the concentration of 10^8 CFU/mL was inoculated to the above four groups as per an inoculum size of 2% (v/v), and respectively cultured for 4 h, 8 h, 12 h, 24 h and 28 h on a shaker, where a culture condition was 37° C. and 180 r/min. Then, a sample at every timing was taken, and a viable count in each shake flask was measured via a dilution spread plate method to embody the antibacterial activity.
The Bacillus subtilis solution having the concentration of 10^8 CFU/mL was inoculated to the above four groups as per an inoculum size of 2% (v/v), and respectively cultured for 4 h, 8 h, 12 h, 24 h and 28 h on a shaker, where a culture condition was 37° C. and 180 r/min, for sampling. Then, a sample was taken, and a viable count in each shake flask at every moment was measured via a dilution spread plate method to embody the antibacterial activity.

nisin
concentration of bacteria in the shake flask (Experimental example 1 (Embodiment 1 materials, nisin 1 g/L), 1 mL agent in 30 mL LB, 8-12 h in culture): ≥ 10^7 CFU/mL | concentration of viable bacteria in the shake flask (Experimental example 1 (Embodiment 1 materials, nisin 1 g/L), 1 mL agent in 30 mL LB, 4 h in culture, 37° C.): ≥ 10^4 CFU/mL | antibacterial activity in words (Experimental example 1 (nisin 1 g/L), nisin at 8 h, empty carrier at 24-28 h, nano-composite at 28 h): lost bacteriostatic action at 8 h | antibacterial activity in words (Experimental example 2 (Embodiment 2 materials, nisin 10 g/L), at 16 h): greatly reduced
